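Results reflect a 48-hour exposure of cells in 96-well plates to compound at five concentrations. The concentration for 50% growth inhibition is given as GI50.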 Calls of active or inactive are those of the source. Cut-off read from the data, not from the text of the source: active = GI50 up to about 1.1 µM and inactive = higher.

Common to all, as to assay: DTP human tumour cell line panel, 48 h
The subject of test [1] is COLO 205.
Test [2] relates to EKVX.
Test [3] concerns HCT-15.
Test [4] deals with IGROV-1.
In test [5] the test system is K562.
The test system of test [6] is NCI-H23.
For test [7], the system named is OVCAR-3.
Test [8] deals with OVCAR-5.
Test [9] relates to PC-3.
Test [10] relates to SF-268.
In test [11] the test system is SF-295.
For test [12], the system named is SF-539.
Test [13] deals with SK-MEL-28.
Test [14] has as its system SK-MEL-5.
Test [15] relates to SN12C.
Test [16] deals with SNB-19.
Test [17] deals with SW-620.
Test [18] concerns TK-10.
The test system of test [19] is UO-31.
For test [20], the system named is HOP-62.

On to `COC1=CC(=O)c2c(c(COC(C)=O)cn2C)C1=O`, for which the GI50 (as a rule, the concentration giving 50% growth inhibition) was 0.0282 µM (active) in test [1]; 0.279 µM (active) in [2]; 0.0197 µM in [3]; 0.184 µM (active) in test [4]; 0.15 µM (active) in test [5]; 0.0715 µM (active) in [6]. In addition, the GI50 was 0.158 µM (active) in test [7]; 0.0223 µM (active) in [8]; 0.309 µM (active) in test [9]; 0.173 µM (active) in [10]; 0.0286 µM (active) in [11]; 0.138 µM (active) in test [12]. For the same compound, the GI50 is 0.22 µM (active) in test [13]; 0.118 µM (active) in test [14]; 0.0622 µM (active) in test [15]; 0.345 µM (active) in test [16]; 0.0249 µM (active) in [17]; 0.0408 µM (active) in [18]. In addition, the GI50 in [19] was 0.159 µM (active).

With `CC(=O)Oc1c(OC(C)=O)c(-c2ccc(O)c(O)c2)c(O)c(O)c1-c1ccc(O)cc1`, the GI50 in test [1] is > 100 µM (inactive); in test [2], > 100 µM (inactive); in test [3], greater than 100 µM; in [20] it was > 100 µM (inactive); in test [4], 93.1 µM (inactive); in test [5], 50.7 µM (inactive). In addition, the GI50 in test [6], in [7], in [8], in test [10], in [11] and in [12] was > 100 µM (inactive) in each case. Also, the GI50 in test [13] was > 100 µM (inactive); in test [14], 19.7 µM (inactive); in test [15], > 100 µM (inactive); in test [16], > 100 µM (inactive); in [17], 42.7 µM (inactive); in test [19] it was > 100 µM (inactive).

Turning to `COc1ccc(CC(CO)NC(=O)OCc2ccccc2)cc1Oc1ccc(CC(CO)NC(=O)OCc2ccccc2)cc1` (configuration not stated), the GI50 was 23.1 µM (inactive) in test [1]; 3.85 µM (inactive) in [2]; 29.4 µM in test [3]; 15.3 µM (inactive) in test [20]; 11 µM (inactive) in test [4]; 16.5 µM (inactive) in test [6]. The GI50 is 13.1 µM (inactive) in test [7]; 15 µM (inactive) in test [8]; 11.2 µM (inactive) in test [9]; 7.82 µM (inactive) in test [10]; 11.6 µM (inactive) in test [11]; 18.3 µM (inactive) in test [13]. For the same compound, the GI50 was 5.09 µM (inactive) in [14]; 16.7 µM (inactive) in [15]; 19 µM (inactive) in [16]; 32.2 µM (inactive) in [17]; 19.4 µM (inactive) in test [18]; 14.3 µM (inactive) in test [19].

Take `Cc1ccc(NC(=O)CC(=O)n2nc(-c3ccccc3)c(/N=N/c3ccccc3C(=O)O)c2-c2ccccc2)cc1`: the GI50 in test [1] is > 100 µM (inactive); in test [2], 1.91 µM (inactive); in [3], greater than 100 µM; in [20] it was > 100 µM (inactive); in test [4], > 100 µM (inactive); in [5], > 100 µM (inactive). Moreover, the GI50 in [7], in test [8], in [10], in test [11], in test [12] and in [13] was > 100 µM (inactive) in each case. The GI50 in test [14] was > 100 µM (inactive); in test [15] it was > 100 µM (inactive); in [16], > 100 µM (inactive); in [17], > 100 µM (inactive); in test [18], 38.6 µM (inactive); in [19] it was 28.8 µM (inactive).

On to `COc1ccc2oc3c(ccc[n+]3C)c(=O)c2c1`, for which the GI50 in [1] was > 100 µM (inactive); in test [2], > 100 µM (inactive); in [3] it was greater than 100 µM; in [20] it was > 100 µM (inactive); in test [4], > 100 µM (inactive); in test [5], > 100 µM (inactive). The GI50 in test [6], in test [7], in test [8], in test [9], in [10] and in test [11] was > 100 µM (inactive) throughout. The GI50 in test [12], in [13], in [14], in [15], in test [16] and in [17] was > 100 µM (inactive) throughout. Besides, the GI50 in test [18] and in test [19] was > 100 µM (inactive) in each case.

As to `CCN(CC)CCCNC(=O)c1ccccc1Nc1c(Cl)cccc1Cl`, the GI50 was 12.7 µM (inactive) in test [1]; 11.1 µM (inactive) in test [2]; 12.6 µM in test [3]; 11.9 µM (inactive) in [20]; 17.6 µM (inactive) in [4]; 6.76 µM (inactive) in test [5]. Also, the GI50 in [6] was 16.6 µM (inactive); in [8], 11.7 µM (inactive); in test [10], 15.5 µM (inactive); in [12] it was 11.4 µM (inactive); in test [13], 2.94 µM (inactive); in [14], 2.96 µM (inactive). Also, the GI50 in test [15] was 14.2 µM (inactive); in [16], 15.6 µM (inactive); in [17], 13.6 µM (inactive); in test [18], 11.3 µM (inactive); in test [19] it was 6.79 µM (inactive).

Consider `Cc1cccc2sc(-c3ccc(O)cc3)nc12`, for which the GI50 is 14.9 µM (inactive) in test [1]; 0.579 µM (active) in test [2]; 12.6 µM in test [3]; 13.7 µM (inactive) in test [4]; 33.3 µM (inactive) in test [5]; 16.5 µM (inactive) in test [6]. Also, the GI50 in test [7] is 16.1 µM (inactive); in [8] it was 16.4 µM (inactive); in test [9], 17.5 µM (inactive); in test [10] it was 16.6 µM (inactive); in [11], 14.6 µM (inactive); in [12] it was 21.5 µM (inactive). The GI50 in [13] is 18.5 µM (inactive); in test [14], 5.81 µM (inactive); in test [15], 18.2 µM (inactive); in test [16], 17.8 µM (inactive); in test [17] it was 11.5 µM (inactive); in test [18], 22.5 µM (inactive). For the same compound, the GI50 in test [19] is 13.6 µM (inactive).

On to `O=C1CN2Cc3cc(N4CCOCC4)ccc3N=C2N1`, for which the GI50 in test [1] was 32.1 µM (inactive); in [3] it was 22.9 µM; in test [20], 47.1 µM (inactive); in test [4], 27.5 µM (inactive); in test [5], 2.91 µM (inactive); in [6], 20.3 µM (inactive). The GI50 in [7] is 30.1 µM (inactive); in test [8] it was 87.3 µM (inactive); in test [9], 31.4 µM (inactive); in test [11] it was 38.6 µM (inactive); in test [13], > 100 µM (inactive); in test [14], 27.8 µM (inactive). For the same compound, the GI50 in test [15] was 63.5 µM (inactive); in [16], > 100 µM (inactive); in test [17] it was 47.1 µM (inactive); in [18], > 100 µM (inactive); in test [19], 33.4 µM (inactive).

For `O=c1cnn(C/C=C/CP(=O)(O)O)c(=O)[nH]1`, the GI50 in test [1] is 80 µM (inactive); in test [2], > 100 µM (inactive); in test [3], greater than 100 µM; in test [20] it was > 100 µM (inactive); in [4], > 100 µM (inactive); in test [5] it was > 100 µM (inactive). For the same compound, the GI50 in [6], in [7], in test [8], in [9], in [10] and in [12] was > 100 µM (inactive) throughout. In addition, the GI50 in test [13], in [14], in test [15], in [16], in [17] and in [18] was > 100 µM (inactive) throughout. Further, the GI50 in test [19] is > 100 µM (inactive).

In the case of `O=C(Nc1ccc(I)cc1C(=O)NCCO)c1cccs1`, the GI50 is > 100 µM (inactive) in test [1]; > 100 µM (inactive) in test [2]; greater than 100 µM in [3]; > 100 µM (inactive) in [20]; > 100 µM (inactive) in [4]; > 100 µM (inactive) in test [5]. Moreover, the GI50 in test [6], in test [7], in test [8], in test [9], in [10] and in test [11] was > 100 µM (inactive) in each case. For the same compound, the GI50 in [12], in [13], in [14], in test [15], in test [16] and in test [17] was > 100 µM (inactive) in each case. In addition, the GI50 in test [19] was > 100 µM (inactive).

As to `CCOC(=O)C(C)OC(=O)c1ccc(C)cc1` (configuration not stated), the GI50 in test [1] is > 100 µM (inactive); in [2], > 100 µM (inactive); in [3], greater than 100 µM; in test [4], > 100 µM (inactive); in [5], 64.1 µM (inactive); in [6], > 100 µM (inactive). In addition, the GI50 in test [7] is > 100 µM (inactive); in test [8], > 100 µM (inactive); in [10] it was > 100 µM (inactive); in [11] it was > 10 µM (inactive); in test [12], > 100 µM (inactive); in test [13], > 100 µM (inactive). Moreover, the GI50 in test [14], in test [15], in test [16], in [17], in test [18] and in test [19] was > 100 µM (inactive) each time.
